Assay: recombinant barcode read abundance after kanamycin selection (control-corrected) (log10(CPM+1)); higher = more efficient recombination; sequences stand for … in AGTGCAGAGAAAATCGGCCAGTTTTCTCTGCCTGCAGTCCGCATGCCGT…AGATTTATGCAGCGGACTGCCTTTCTCCCAAAGTGATAAACCGGACAGTATCATGGACCGGTTTTCCCGGTAATCCGTATTTGCAAGGTTGGTTTCACT; site = the 11-nt target
Procedure: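 Pooled E. coli target-specificity screen for the IS621 bridge recombinase. Each library plasmid pairs an 11-nt target (CT core) with a bridge RNA whose target-binding loop (9-nt LTG + 4-nt RTG) is reprogrammed; the rest of the 177-nt WT IS621 bridge RNA scaffold is fixed. The plasmid is co-electroporated with a WT donor plasmid; recombinase is induced with 0.1 mM IPTG and recombinants are selected on kanamycin. Recombinant barcodes are sequenced, converted to CPM, averaged over two biological replicates and corrected by the unselected control CPM. Molecule = full bridge RNA written as DNA: LTG = specificity nt 1-9, RTG = reverse complement of specificity nt 8-11, in the WT scaffold.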
With “AGTTGCTCTTGGGTTCTAACCTGTTGCCT (site GGTTGCACTAG)” the “recombinant barcode read abundance (log10)” value was 0.268.
With “AACAATGCTTGGGTTCTAACCTGTTGCCT (site AACAGTGCTAG)” the “recombinant barcode read abundance (log10)” value was 0.207.
With “TTCATGTCTTGGGTTCTAACCTGTTGCCT (site TTCATGTCTAG)” the “recombinant barcode read abundance (log10)” value was 0.811.
For “AATAGGACTTGGGTTCTAACCTGTTGCGC (site AATAGGACTGC)”, the “recombinant barcode read abundance (log10)” value was 1.76.
In the case of “TCGGAGTCTTGGGTTCTAACCTGTTGCTG (site TCGGAGTCTCG)”, the “recombinant barcode read abundance (log10)” value is reported as 0.446.
For “CAGCTACCTTGGGTTCTAACCTGTTGCCT (site CTGCTACCTAG)”, the “recombinant barcode read abundance (log10)” value was 0.585.
In the case of “GTCTTACCTTGGGTTCTAACCTGTTGCCT (site GTCGTACCTAG)”, the “recombinant barcode read abundance (log10)” value is reported as 0.098.
With “CGTTATTCTTGGGTTCTAACCTGTTGCCT (site CGGAATTCTAG)” the “recombinant barcode read abundance (log10)” value was 0.115.
In the case of “GCTAGGGCTTGGGTTCTAACCTGTTGCAG (site GCTAGGGCTCT)”, the “recombinant barcode read abundance (log10)” value is reported as 2.94.
In the case of “CTAAGTGCTTGGGTTCTAACCTGTTGCCA (site CTAAGTGCTTG)”, the “recombinant barcode read abundance (log10)” value is reported as 0.35.
With “CACTTCCCTTGGGTTCTAACCTGTTGCAT (site CACTTCCCTAT)” the “recombinant barcode read abundance (log10)” value was 1.93.
For “CCGCATACTTGGGTTCTAACCTGTTGCCT (site CTGCATACTAG)”, the “recombinant barcode read abundance (log10)” value was 0.559.
For “ATGACTACTTGGGTTCTAACCTGTTGCTC (site ATGACTACTGA)”, the “recombinant barcode read abundance (log10)” value was 0.423.
With “TCACCTGCTTGGGTTCTAACCTGTTGCCT (site TCACTTGCTAG)” the “recombinant barcode read abundance (log10)” value was 0.0607.
For “CTCCATTCTTGGGTTCTAACCTGTTGCCT (site CTCCATTCTAG)”, the “recombinant barcode read abundance (log10)” value was 0.739.
For “CTCGAATCTTGGGTTCTAACCTGTTGCTT (site GGGATCCCTCC)”, the “recombinant barcode read abundance (log10)” value was 0.101.
For “TCTACTTCTTGGGTTCTAACCTGTTGCCT (site TCTACTTCTAG)”, the “recombinant barcode read abundance (log10)” value was 0.136.
With “GTGGGCGCTTGGGTTCTAACCTGTTGCCT (site GTGGGCGCTAG)” the “recombinant barcode read abundance (log10)” value was 1.33.
With “ACTAGGACTTGGGTTCTAACCTGTTGCGA (site ACTAGGACTTC)” the “recombinant barcode read abundance (log10)” value was 2.27.
With “CGAACTACTTGGGTTCTAACCTGTTGCTT (site CGAACTACTAT)” the “recombinant barcode read abundance (log10)” value was 0.0384.
For “TGGATGCCTTGGGTTCTAACCTGTTGCCT (site TGAATGACTAG)”, the “recombinant barcode read abundance (log10)” value was 0.0485.
With “GTCGGAGCTTGGGTTCTAACCTGTTGCTG (site GTCGGAGCTCT)” the “recombinant barcode read abundance (log10)” value was 0.737.
In the case of “TACAAGTCTTGGGTTCTAACCTGTTGCAG (site TACAAGCCTCC)”, the “recombinant barcode read abundance (log10)” value is reported as 0.11.
In the case of “GGGTCCTCTTGGGTTCTAACCTGTTGCCT (site GGGTCCTCTTG)”, the “recombinant barcode read abundance (log10)” value is reported as 0.155.
For “TAGAAGCCTTGGGTTCTAACCTGTTGCCT (site AAGAAGCCTAG)”, the “recombinant barcode read abundance (log10)” value was 0.248.
With “CTGTGCCCTTGGGTTCTAACCTGTTGCCT (site CTGCGCCCTAG)” the “recombinant barcode read abundance (log10)” value was 0.0771.
For “GATACTGCTTGGGTTCTAACCTGTTGCCT (site GATACTGCTAG)”, the “recombinant barcode read abundance (log10)” value was 0.504.
For “GTTTGGACTTGGGTTCTAACCTGTTGCTA (site GTTTGGACTCA)”, the “recombinant barcode read abundance (log10)” value was 0.178.
With “GACTTTCCTTGGGTTCTAACCTGTTGCAT (site GACTTGCCTAT)” the “recombinant barcode read abundance (log10)” value was 0.0607.
With “AGTCACACTTGGGTTCTAACCTGTTGCTG (site AGTCACACTCA)” the “recombinant barcode read abundance (log10)” value was 1.18.
In the case of “GTTAGAACTTGGGTTCTAACCTGTTGCTT (site GTTAGAACTAA)”, the “recombinant barcode read abundance (log10)” value is reported as 0.123.
For “ACTCTAACTTGGGTTCTAACCTGTTGCTT (site ACTGTAACTAA)”, the “recombinant barcode read abundance (log10)” value was 0.0269.
With “TGTAGTCCTTGGGTTCTAACCTGTTGCTT (site TGTAGTCCTAT)” the “recombinant barcode read abundance (log10)” value was 0.0117.
For “AGCGGCCCTTGGGTTCTAACCTGTTGCCT (site AGCGGTCCTAG)”, the “recombinant barcode read abundance (log10)” value was 0.0761.
For “GACTATCCTTGGGTTCTAACCTGTTGCCG (site GACTATCCTCG)”, the “recombinant barcode read abundance (log10)” value was 0.739.
With “CTACGTCCTTGGGTTCTAACCTGTTGCTC (site CTACGTCCTCA)” the “recombinant barcode read abundance (log10)” value was 0.942.
With “GTCCCTCCTTGGGTTCTAACCTGTTGCAT (site GTCCCTCCTAC)” the “recombinant barcode read abundance (log10)” value was 0.405.
With “GGTTGTCCTTGGGTTCTAACCTGTTGCGG (site GGTTGTCCTCC)” the “recombinant barcode read abundance (log10)” value was 1.2.
With “GCATGACCTTGGGTTCTAACCTGTTGCAG (site GCATGACCTCT)” the “recombinant barcode read abundance (log10)” value was 1.23.
For “TCAGGAGCTTGGGTTCTAACCTGTTGCTA (site CATATGACTAG)”, the “recombinant barcode read abundance (log10)” value was 0.288.
In the case of “CTCCGCCCTTGGGTTCTAACCTGTTGCTT (site CTCCGACCTAA)”, the “recombinant barcode read abundance (log10)” value is reported as 0.121.
For “TCTTATTCTTGGGTTCTAACCTGTTGCGT (site TCTAATTCTAC)”, the “recombinant barcode read abundance (log10)” value was 0.0715.
With “TCAATCCCTTGGGTTCTAACCTGTTGCCT (site TCCATCCCTAG)” the “recombinant barcode read abundance (log10)” value was 0.048.
With “CCTGGGTCTTGGGTTCTAACCTGTTGCTT (site CCTGGGTCTAA)” the “recombinant barcode read abundance (log10)” value was 1.08.
For “AGGCGTCCTTGGGTTCTAACCTGTTGCCG (site AGGCGTCCTTG)”, the “recombinant barcode read abundance (log10)” value was 0.122.
For “TCATTAGCTTGGGTTCTAACCTGTTGCCG (site GGGCATCCTAT)”, the “recombinant barcode read abundance (log10)” value was 0.0935.
With “GAAAGGGCTTGGGTTCTAACCTGTTGCCT (site GAAAAGGCTAG)” the “recombinant barcode read abundance (log10)” value was 0.183.
In the case of “TCGGAGTCTTGGGTTCTAACCTGTTGCGC (site CTATGACCTCA)”, the “recombinant barcode read abundance (log10)” value is reported as 0.0526.
In the case of “TAGGCTCCTTGGGTTCTAACCTGTTGCAC (site TAGGCTCCTAT)”, the “recombinant barcode read abundance (log10)” value is reported as 0.2.
With “CATGATGCTTGGGTTCTAACCTGTTGCCT (site CATGATGCTAG)” the “recombinant barcode read abundance (log10)” value was 1.86.
With “TCGAGGCCTTGGGTTCTAACCTGTTGCGG (site TCGAGGCCTCC)” the “recombinant barcode read abundance (log10)” value was 1.34.
For “GGACGGCCTTGGGTTCTAACCTGTTGCCT (site GGACGACCTAG)”, the “recombinant barcode read abundance (log10)” value was 0.523.
In the case of “CGAGAGTCTTGGGTTCTAACCTGTTGCGG (site CGAGAGTCTCC)”, the “recombinant barcode read abundance (log10)” value is reported as 1.31.
With “CGTAAGACTTGGGTTCTAACCTGTTGCCT (site CGTGAGACTAG)” the “recombinant barcode read abundance (log10)” value was 0.0483.
With “TAGAGCCCTTGGGTTCTAACCTGTTGCGG (site TAGAGCCCTCC)” the “recombinant barcode read abundance (log10)” value was 0.953.
For “GCCAAGGCTTGGGTTCTAACCTGTTGCCT (site GCCAAGGCTAG)”, the “recombinant barcode read abundance (log10)” value was 0.407.
With “TGCAGGGCTTGGGTTCTAACCTGTTGCGG (site TGCAGGGCTCC)” the “recombinant barcode read abundance (log10)” value was 1.26.
For “AGTTTCGCTTGGGTTCTAACCTGTTGCGG (site AGTGTCGCTCC)”, the “recombinant barcode read abundance (log10)” value was 0.0655.
For “TCTAGACCTTGGGTTCTAACCTGTTGCCT (site TCTAGAACTAG)”, the “recombinant barcode read abundance (log10)” value was 0.
For “AGTTGCTCTTGGGTTCTAACCTGTTGCCT (site AGTTGCTCTAG)”, the “recombinant barcode read abundance (log10)” value was 0.468.
For “TCTGATCCTTGGGTTCTAACCTGTTGCCT (site TCTCACCCTAG)”, the “recombinant barcode read abundance (log10)” value was 0.0615.
With “TCTCGAGCTTGGGTTCTAACCTGTTGCGA (site TCTCGAGCTTC)” the “recombinant barcode read abundance (log10)” value was 0.78.
With “CCTCGGCCTTGGGTTCTAACCTGTTGCAT (site CCTCGGCCTAT)” the “recombinant barcode read abundance (log10)” value was 0.862.
In the case of “CCACGTTCTTGGGTTCTAACCTGTTGCCT (site CTACGTTCTAG)”, the “recombinant barcode read abundance (log10)” value is reported as 0.0541.
For “GCACAGACTTGGGTTCTAACCTGTTGCCT (site GCAAAGCCTAG)”, the “recombinant barcode read abundance (log10)” value was 0.207.
For “CGAGATTCTTGGGTTCTAACCTGTTGCCT (site CCAGATTCTAG)”, the “recombinant barcode read abundance (log10)” value was 0.271.
In the case of “TTAGTTGCTTGGGTTCTAACCTGTTGCCT (site TTAGTAGCTAG)”, the “recombinant barcode read abundance (log10)” value is reported as 0.225.
For “AAAGGTTCTTGGGTTCTAACCTGTTGCCT (site ATAGGTTCTAG)”, the “recombinant barcode read abundance (log10)” value was 0.126.
For “GATAGTGCTTGGGTTCTAACCTGTTGCCT (site GATAGTACTAG)”, the “recombinant barcode read abundance (log10)” value was 0.0881.
With “GCCAACCCTTGGGTTCTAACCTGTTGCCT (site GCCAACCCTAT)” the “recombinant barcode read abundance (log10)” value was 0.0781.
In the case of “CTCGATTCTTGGGTTCTAACCTGTTGCAT (site CTCGATTCTAT)”, the “recombinant barcode read abundance (log10)” value is reported as 1.66.
In the case of “CTTCATCCTTGGGTTCTAACCTGTTGCCT (site CTTCACCCTAG)”, the “recombinant barcode read abundance (log10)” value is reported as 0.34.
With “TACCAGTCTTGGGTTCTAACCTGTTGCTT (site TACCGGTCTAA)” the “recombinant barcode read abundance (log10)” value was 0.293.
For “TCGGATACTTGGGTTCTAACCTGTTGCTT (site TCGGATACTAT)”, the “recombinant barcode read abundance (log10)” value was 0.323.
For “GTTTAGTCTTGGGTTCTAACCTGTTGCCT (site GTTTAATCTAG)”, the “recombinant barcode read abundance (log10)” value was 0.159.
For “GAGCCGACTTGGGTTCTAACCTGTTGCCT (site GAGCCGACTAG)”, the “recombinant barcode read abundance (log10)” value was 1.56.
In the case of “CATTTCCCTTGGGTTCTAACCTGTTGCCT (site CATTTCCCTAA)”, the “recombinant barcode read abundance (log10)” value is reported as 0.0164.
In the case of “AATGGGGCTTGGGTTCTAACCTGTTGCTG (site AATGGGGCTCA)”, the “recombinant barcode read abundance (log10)” value is reported as 1.15.
With “GGGGCACCTTGGGTTCTAACCTGTTGCAT (site GGGGCACCTAT)” the “recombinant barcode read abundance (log10)” value was 2.89.
For “TCGGAGTCTTGGGTTCTAACCTGTTGCAT (site TCGGAGTCTAT)”, the “recombinant barcode read abundance (log10)” value was 2.29.
With “GGACGATCTTGGGTTCTAACCTGTTGCCT (site GGACCATCTAG)” the “recombinant barcode read abundance (log10)” value was 0.0164.
In the case of “GTACGCACTTGGGTTCTAACCTGTTGCCT (site AGTTAGTCTCT)”, the “recombinant barcode read abundance (log10)” value is reported as 0.0249.
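Also: IS621 recombinase and bridge RNA in Escherichia coli cells.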
